Marks after values point to notes of the source that are not given here.
Test system: radiolabeled mAb-conjugates
Assay: In vitro Label release from radiolabeled mAb-TCO-chelate conjugates incubated with Cleaving Agents (SEC)
Details: 37°C, 15-24 h; for release (%) without Cleaving Agent: no Cleaving Agent
Protocol: Briefly, mAb solutions in PBS (4 mg/mL final concentration) were added with 15-20 eq of the NHS-derivative (dissolved at 10 mg/mL in DMSO) and the pH was adjusted to 9 with 1M sodium carbonate. The reaction mixtures were incubated at rt in the dark for 2 h then the products were purified by dialysis (20 kDa MW cut-off membranes) in chelex-treated 0.25M NH4OAc pH 5.5.
After 15-24 h incubation the mixtures were analyzed by SEC and the amount of released Label was quantified from the radioactivity elution profile.

[1] = Label release from TCO derivative 1.14 on CC49, ^89Zr, PBS
[2] = Label release from TCO derivative 1.15 on CC49, ^89Zr, PBS
[3] = Label release from TCO derivative 1.17 on CC49, ^89Zr, PBS
[4] = Label release from TCO derivative 1.17 on trastuzumab, ^89Zr, PBS
[5] = Label release from TCO derivative 1.8 on trastuzumab, ^111In, PBS
[6] = Label release from TCO derivative 1.4 on trastuzumab, ^111In, 50% mouse plasma in PBS
[7] = TCO derivative conjugated to trastuzumab, ^111In, 50% mouse plasma in PBS
[8] = TCO derivative conjugated to trastuzumab, ^111In, PBS
[9] = Label release from TCO derivative 1.8 on trastuzumab, ^111In, 50% mouse plasma in PBS

`Oc1cnccc1-c1nnc(-c2ccncc2O)nn1` [Compound 2.2, 4,4′-(1,2,4,5-Tetrazine-3,6-diyl)bis(pyridin-3-ol)] was tested, and the “release (%)” value [1] was 60.3%, the “release (%)” value [2] was 65.8% and the “release (%)” value [3] was 87.2%. For the same compound, the “release (%)” value [4] was 61.4%, the “release (%)” value (Label release from TCO derivative 1.4 on trastuzumab, ^111In, PBS) was 69.5% and the “release (%)” value [5] was 81.6%.

`Cc1nnc(C)nn1` [Compound 2.13, reference compound] was tested, and the “release (%)” value [1] was 53.6%, the “release (%)” value [2] was 66.3% and the “release (%)” value [3] was 72.3%. For the same compound, the “release (%)” value [4] was 84.4%, the “release (%)” value [6] was 62.9^a % and the “release (%)” value (Label release from TCO derivative 1.4 on trastuzumab, ^177Lu, PBS) was 69.5%. For the same compound, the “release (%)” value [5] was 71.4% and the “release (%)” value (Label release from TCO derivative 1.8 on trastuzumab, ^177Lu, PBS) was 88.9%.

For `C[C@]1(C(=O)ON2C(=O)CCC2=O)CC/C=C/[C@@H](OC(=O)NCCNC(=O)CCC(C(=O)O)N2CCN(CC(=O)O)CCN(CC(=O)O)CCN(CC(=O)O)CC2)CC1` (stereo partly shown) [Compound 1.4, NHS-TCO-C2-DOTAGA], the “release (%) without Cleaving Agent” value [7] was 7.1% and the “release (%) without Cleaving Agent” value [8] was 6.8%.

In the case of `CC(=O)N[C@H]1C(OCCOCCOCCn2cc(COCCC(=O)NCCCCC(NC(=O)CCOCc3cn(CCOCCOCCOC4O[C@H](CO)[C@H](O)[C@H](O)[C@H]4NC(C)=O)nn3)C(=O)NCc3ccc(-c4nncnn4)cc3)nn2)O[C@H](CO)[C@H](O)[C@@H]1O` (stereo partly shown) [Compound 2.11, Tetrazine-bis-GalNAc], the “release (%)” value [5] is reported as 67.2%.

In the case of `Cc1nnc(-c2nccc(CNC(=O)CCCC(=O)NC(CO)CO)n2)nn1` [Compound 2.20], the “release (%)” value [5] is reported as 67.2%.

In the case of `CN(CC(=O)NCCOCCOCCOCCOCCNC(=O)CCC(C(=O)O)N1CCN(CC(=O)O)CCN(CC(=O)O)CCN(CC(=O)O)CC1)C(=O)O[C@@H]1/C=C/CC[C@](C)(C(=O)NCCOCCOCCOCCOCCOCCOCCOCCOCCOCCNC(=O)CCN2C(=O)C=CC2=O)CC1` (stereo partly shown) [Compound 1.8, Mal-PEG9-TCO-Sar-PEG4-DOTAGA], the “release (%) without Cleaving Agent” value [7] is reported as 6.6% and the “release (%) without Cleaving Agent” value [8] is reported as 5.8%.

In the case of `CC(=O)N(O)CCCCCNC(=O)CCC(=O)N(O)CCCCCNC(=O)CCC(=O)N(O)CCCCCNC(=O)CN(C)C(=O)O[C@@H]1/C=C/CC[C@](C)(C(=O)ON2C(=O)CCC2=O)CC1` [Compound 1.15, NHS-TCO-Sar-DFO], the “release (%) without Cleaving Agent” value (TCO derivative conjugated to CC49, ^89Zr, PBS) is reported as 7.3%.

`Oc1cccnc1-c1nnc(-c2ncccc2O)nn1` [Compound 2.1, 2,2′-(1,2,4,5-Tetrazine-3,6-diyl)bis(pyridin-3-ol)] was tested, and the “release (%)” value [1] was 53.0%, the “release (%)” value [2] was 62.3% and the “release (%)” value (Label release from TCO derivative 1.17 on CC49, ^89Zr, 50% mouse plasma in PBS) was 81.3%. For the same compound, the “release (%)” value [3] was 88.0%, the “release (%)” value [4] was 88.9% and the “release (%)” value (Label release from TCO derivative 1.2 on CC49, ^111In, PBS) was 80.3%. For the same compound, the “release (%)” value (Label release from TCO derivative 1.2 on cetuximab, ^111In, PBS) was 85.7%, the “release (%)” value (Label release from TCO derivative 1.2 on girentuximab, ^111In, PBS) was 83.2% and the “release (%)” value (Label release from TCO derivative 1.2 on rituximab, ^111In, PBS) was 77.9%. The “release (%)” value (Label release from TCO derivative 1.2 on trastuzumab, ^111In, 50% mouse plasma in PBS) was 88.1%, the “release (%)” value (Label release from TCO derivative 1.2 on trastuzumab, ^111In, PBS) was 78.2% and the “release (%)” value [6] was 81.8^a %. For the same compound, the “release (%)” value (Label release from TCO derivative 1.6 on trastuzumab, ^111In, 50% mouse plasma in PBS) was 68.9%, the “release (%)” value (Label release from TCO derivative 1.6 on trastuzumab, ^111In, PBS) was 83.6% and the “release (%)” value (Label release from TCO derivative 1.7 on trastuzumab, ^111In, 50% mouse plasma in PBS) was 63.4%. For the same compound, the “release (%)” value (Label release from TCO derivative 1.7 on trastuzumab, ^111In, PBS) was 78.9%, the “release (%)” value [9] was 77.0% and the “release (%)” value [5] was 86.4%.

With `c1ccc(-c2nnc(-c3ccccn3)nn2)nc1` [Compound 2.14, reference compound] the “release (%)” value [5] was 51.5%.

With `CC(=O)Nc1cccnc1-c1nnc(-c2ncccc2NC(C)=O)nn1` [Compound 2.4, N,N′-(2,2′-(1,2,4,5-Tetrazine-3,6-diyl)bis(pyridine-3,2-diyl))diacetamide] the “release (%)” value [9] was 54.5^a %.

With `O=C(CCCC(=O)Nc1cccnc1-c1nnc(-c2ncccc2NC(=O)CCCC(=O)NCCOCCOCCOCCOCCOCCOCCOCCOCCOCCO)nn1)NCCOCCOCCOCCOCCOCCOCCOCCOCCOCCO` [Compound 2.8, N^1,N^1′-(2,2′-(1,2,4,5-Tetrazine-3,6-diyl)bis(pyridine-3,2-diyl))bis(N^5-(29-hydroxy-3,6,9,12,15,18,21,24,27-nonaoxanonacosyl)glutaramide)] the “release (%)” value [9] was 60.6% and the “release (%)” value [5] was 79.9%.

`Cc1nnc(-c2ncccn2)nn1` [Compound 2.19, reference compound] was tested, and the “release (%)” value [5] was 69.1%.

`NCc1ccc(-c2nncnn2)cc1` [Compound 2.16, reference compound] was tested, and the “release (%)” value [5] was 64.5%.

`O=C(O)CCCC(=O)Nc1cnccc1-c1nnc(-c2ccncc2NC(=O)CCCC(=O)O)nn1` [Compound 2.9, 5,5′-((4,4′-(1,2,4,5-Tetrazine-3,6-diyl)bis(pyridine-4,3-diyl))bis(azanediyl))bis(5-oxopentanoic acid)] was tested, and the “release (%)” value [9] was 67.0^a %.

From patent US20220331458A1, “AGENTS FOR CLEAVING LABELS FROM BIOMOLECULES IN VIVO” (TAGWORKS PHARMACEUTICALS B.V., priority 2019, published 2022)
